The text below walks through data of patent publication US7425551B2, “Malonamide derivatives” (Hoffmann-La Roche Inc., priority 2006, dated 2008).

The experiment addresses T1, γ-secretase (Homo sapiens, UniProt P49768).
T1 construct: uses a HEK293 membrane fraction as a source of γ-secretase; endogenous in cells; host or cells: HEK293 (microsomal membrane fraction, solubilised in 0.25% CHAPSO)
Nature of the experiment: in vitro assay of γ-secretase activity (HEK293 membrane fraction, recombinant APP substrate, Abeta ELISA). The following applies: γ-secretase inhibition; HEK293 membrane fraction solubilized in 0.25% CHAPSO, recombinant human APP C-terminal 100 amino acids substrate, Abeta detected by ELISA. Type of experiment: biochemical. From the text: Description of 1γ-Secretase Assay The activity of test compounds can be evaluated in assays which measure the proteolytic cleavage of suitable substrates by γ-secretase activity. These can be cellular assays where e.g., a substrate of the γ-secretase is fused in its cytoplasmic domain to a transcription factor. Cells are transfected with this fusion gene and a reporter gene, e.g., firefly luciferase, which expression is enhanced by the transcription factor. Cleavage of the fused substrate by γ-secretase will lead to expression of the reporter gene which can be monitored in appropriate assays. The γ-secretase activity can also be determined in cell-free in vitro assays where e.g., a cell lysate containing the γ-secretase complex is incubated with a suitable APP-derived substrate which is cleaved to the Abeta peptides. The amount of produced peptides can be determined with specific ELISA assays. Cell lines of neuronal origin secrete Abeta peptides which can be measured with the specific ELISA assay. Treatment with compounds which inhibit γ-secretase leads to a reduction of secreted Abeta thus providing a measure of inhibition. The in vitro assay of γ-secretase activity uses a HEK293 membrane fraction as a source of γ-secretase and a recombinant APP substrate. Latter consist of the C-terminal 100 amino acids of human APP fused to a 6× Histidin tail for purification which is expressed in E. coli in a regulatable expression vector, e.g. pEt15. This recombinant protein corresponds to the truncated APP fragment which results after […] of the extracellular domain and which constitutes the γ-secretase substrate. The assay principle is described in Li Y M et al, PNAS 97(11), 6138-6143 (2000). Hek293 cells are mechanically disrupted and the microsomal fraction is isolated by differential centrifugation. The membranes are solubilized in detergent (0.25% CHAPSO) and incubated with the APP substrate. The Abeta peptides which are produced by γ-secretase cleavage of the substrate are detected by specific ELISA assays as described (Brockhaus M et al, Neuroreport 9(7), 1481-1486 (1998).
Background: An ELISA detects its analyte on a solid surface through an enzyme-linked reagent.

Each structure is given as a SMILES string.

In general, IC50 refers to the point on the concentration scale where inhibition reaches its midpoint. In the case of `C[C@](F)(C(=O)NCCC(F)(F)C(F)(F)F)C(=O)N[C@@H]1C(=O)N(CCOCc2ccccc2)c2ccccc2-c2ccccc21` [Example 44, (S)—N—[(S)-5-(2-Benzyloxy-ethyl)-6-oxo-6,7-dihydro-5H-dibenzo[b,d]azepin-7-yl]-2-fluoro-2-methyl-N′-(3,3,4,4,4-pentafluoro-butyl)-malonamide], the IC50 was determined as 9 nM.
With `C[C@H](OC(=O)NCCF)C(=O)N[C@@H]1C(=O)N(CCO)c2ccccc2-c2ccccc21` [Example 47, (2-Fluoro-ethyl)-carbamic acid (S)-1-[(S)-5-(2-hydroxy-ethyl)-6-oxo-6,7-dihydro-5H-dibenzo[b,d]azepin-7-ylcarbamoyl]-ethyl ester], the IC50 came to 755 nM.
As for `C[C@H](OC(=O)NCC(F)(F)F)C(=O)N[C@@H]1C(=O)N(CCO)c2ccccc2-c2ccccc21` [Example 48, (2,2,2-Trifluoro-ethyl)-carbamic acid (S)-1-[(S)-5-(2-hydroxy-ethyl)-6-oxo-6,7-dihydro-5H-dibenzo[b,d]azepin-7-ylcarbamoyl]-ethyl ester], the figure is 14 nM.
Turning to `C[C@](F)(C(=O)NCC(F)(F)F)C(=O)N[C@@H]1C(=O)N(CCO)c2ccccc2-c2ccccc21` [Example 49, (S)-2-Fluoro-N—[(S)-5-(2-hydroxy-ethyl)-6-oxo-6,7-dihydro-5H-dibenzo[b,d]azepin-7-yl]-2-methyl-N′-(2,2,2-trifluoro-ethyl)-malonamide], the IC50 is 157 nM.
For the molecule `C[C@](F)(C(=O)NCCC(F)(F)C(F)(F)F)C(=O)N[C@@H]1C(=O)N(CCO)c2ccccc2-c2ccccc21` [Example 50, (S)-2-Fluoro-N—[(S)-5-(2-hydroxy-ethyl)-6-oxo-6,7-dihydro-5H-dibenzo[b,d]azepin-7-yl]-2-methyl-N′-(3,3,4,4,4-pentafluoro-butyl)-malonamide], the IC50 came to 16 nM.
As to `C[C@@](F)(C(=O)NCCC(F)(F)F)C(=O)N[C@@H]1C(=O)N(CCOCc2ccccc2)c2ccccc2-c2ccccc21` [Example 51, (R)—N—[(S)-5-(2-Benzyloxy-ethyl)-6-oxo-6,7-dihydro-5H-dibenzo[b,d]azepin-7-yl]-2-fluoro-2-methyl-N′-(3,3,3-trifluoro-propyl)-malonamide], the IC50 turned out to be 7 nM.
In the case of `C[C@@](F)(C(=O)NCC(F)(F)F)C(=O)N[C@@H]1C(=O)N(CCOCc2ccccc2)c2ccccc2-c2ccccc21` [Example 52, (R)—N—[(S)-5-(2-Benzyloxy-ethyl)-6-oxo-6,7-dihydro-5H-dibenzo[b,d]azepin-7-yl]-2-fluoro-2-methyl-N′-(2,2,2-trifluoro-ethyl)-malonamide], the IC50 is 10 nM.
As for `C[C@@](F)(C(=O)NCC(F)(F)F)C(=O)N[C@@H]1C(=O)N(CCO)c2ccccc2-c2ccccc21` [Example 53, (R)-2-Fluoro-N—[(S)-5-(2-hydroxy-ethyl)-6-oxo-6,7-dihydro-5H-dibenzo[b,d]azepin-7-yl]-2-methyl-N′-(2,2,2-trifluoro-ethyl)-malonamide], the IC50 turned out to be 9 nM.
With `C[C@@](F)(C(=O)NCCC(F)(F)F)C(=O)N[C@@H]1C(=O)N(CCO)c2ccccc2-c2ccccc21` [Example 54, (R)-2-Fluoro-N—[(S)-5-(2-hydroxy-ethyl)-6-oxo-6,7-dihydro-5H-dibenzo[b,d]azepin-7-yl]-2-methyl-N-(3,3,3-trifluoro-propyl)-malonamide], the IC50 worked out at 8 nM.
As to `CC(O)(C(=O)NCCC(F)(F)C(F)(F)F)C(=O)N[C@@H]1C(=O)N(CCOCc2ccccc2)c2ccccc2-c2ccccc21` (stereo partly drawn) [Example 55, N—[(S)-5-(2-Benzyloxy-ethyl)-6-oxo-6,7-dihydro-5H-dibenzo[b,d]azepin-7-yl]-2-hydroxy-2-methyl-N′-(3,3,4,4,4-pentafluoro-butyl)-malonamide], the IC50 came out at 12 nM.
On to `CC(O)(C(=O)NCCC(F)(F)C(F)(F)F)C(=O)N[C@@H]1C(=O)N(CCO)c2ccccc2-c2ccccc21` (stereo partly drawn) [Example 56, 2-Hydroxy-N—[(S)-5-(2-hydroxy-ethyl)-6-oxo-6,7-dihydro-5H-dibenzo[b,d]azepin-7-yl]-2-methyl-N′-(3,3,4,4,4-pentafluoro-butyl)-malonamide], for which the IC50 was found to be 2 nM.
Consider `C[C@@](O)(C(=O)NCC(F)(F)F)C(=O)N[C@@H]1C(=O)N(CCOCc2ccccc2)c2ccccc2-c2ccccc21` [Example 57, (R)—N—[(S)-5-(2-Benzyloxy-ethyl)-6-oxo-6,7-dihydro-5H-dibenzo[b,d]azepin-7-yl]-2-hydroxy-2-methyl-N′-(2,2,2-trifluoro-ethyl)-malonamide], for which the IC50 worked out at 90 nM.
As for `C[C@](O)(C(=O)NCC(F)(F)F)C(=O)N[C@@H]1C(=O)N(CCOCc2ccccc2)c2ccccc2-c2ccccc21` [Example 58, (S)—N—[(S)-5-(2-Benzyloxy-ethyl)-6-oxo-6,7-dihydro-5H-dibenzo[b,d]azepin-7-yl]-2-hydroxy-2-methyl-N′-(2,2,2-trifluoro-ethyl)-malonamide], the figure is 8 nM; as for `C[C@@](O)(C(=O)NCC(F)(F)F)C(=O)N[C@@H]1C(=O)N(CCO)c2ccccc2-c2ccccc21` [Example 59, (R)-2-Hydroxy-N—[(S)-5-(2-hydroxy-ethyl)-6-oxo-6,7-dihydro-5H-dibenzo[b,d]azepin-7-yl]-2-methyl-N′-(2,2,2-trifluoro-ethyl)-malonamide], 190 nM; as for `C[C@](O)(C(=O)NCC(F)(F)F)C(=O)N[C@@H]1C(=O)N(CCO)c2ccccc2-c2ccccc21` [Example 60, (S)-2-Hydroxy-N—[(S)-5-(2-hydroxy-ethyl)-6-oxo-6,7-dihydro-5H-dibenzo[b,d]azepin-7-yl]-2-methyl-N′-(2,2,2-trifluoro-ethyl)-malonamide], 4 nM.
As for `CC(O)(C(=O)NCCC(F)(F)F)C(=O)N[C@@H]1C(=O)N(CCOCc2ccccc2)c2ccccc2-c2ccccc21` (stereo partly drawn) [Example 63, N—[(S)-5-(2-Benzyloxy-ethyl)-6-oxo-6,7-dihydro-5H-dibenzo[b,d]azepin-7-yl]-2-hydroxy-2-methyl-N′-(3,3,3-trifluoro-propyl)-malonamide], the concentration for half-maximal inhibition (IC50) was determined as 2 nM.
As for `COCCN1C(=O)[C@@H](NC(=O)C(C)(C)C(=O)NCC(F)(F)C(F)(F)F)c2ccccc2-c2ccccc21` [Example 67, N—[(S)-5-(2-Methoxy-ethyl)-6-oxo-6,7-dihydro-5H-dibenzo[b,d]azepin-7-yl]-2,2-dimethyl-N′-(2,2,3,3,3-pentafluoro-propyl)-malonamide], the figure is 5 nM; as for `COCCN1C(=O)[C@@H](NC(=O)C(OC)C(=O)NCC(F)(F)C(F)(F)F)c2ccccc2-c2ccccc21` (stereo partly drawn) [Example 68, 2-Methoxy-N—[(S)-5-(2-methoxy-ethyl)-6-oxo-6,7-dihydro-5H-dibenzo[b,d]azepin-7-yl]-N′-(2,2,3,3,3-pentafluoro-propyl)-malonamide], 9 nM.
As for `CC(C)(C(=O)NCC(F)(F)C(F)(F)F)C(=O)N[C@@H]1C(=O)N(CCOc2ccc(F)cc2)c2ccccc2-c2ccccc21` [Example 69, N-{(S)-5-[2-(4-Fluoro-phenoxy)-ethyl]-6-oxo-6,7-dihydro-5H-dibenzo[b,d]azepin-7-yl}-2,2-dimethyl-N′-(2,2,3,3,3-pentafluoro-propyl)-malonamide], the figure is 6 nM; as for `CC(C)OCCN1C(=O)[C@@H](NC(=O)C(C)(C)C(=O)NCC(F)(F)C(F)(F)F)c2ccccc2-c2ccccc21` [Example 70, N—[(S)-5-(2-Isopropoxy-ethyl)-6-oxo-6,7-dihydro-5H-dibenzo[b,d]azepin-7-yl]-2,2-dimethyl-N′-(2,2,3,3,3-pentafluoro-propyl)-malonamide], 7 nM.
